Publication PMC9117324 (Scientific Reports, 2022)
Where “and” joins values, the source holds several entries; their conditions need not be identical. Identical values can stand only once.

Key:
Caco-2 cells [1] = experiment: Annexin V-FITC/PI apoptosis flow cytometry, Caco-2; assay type: cell-based, Human; conditions: Caco-2, IC50 concentration, 48 h
Procedure: (§1) After washing the cells with cold PBS, they were resuspended in 100 µl binding buffer containing Annexin V-FITC (5 μL) and PI (5 μL) solution. After incubation for 15 min at room temperature, cells were washed and suspended in 100 μL of 1 × binding buffer. Cells were investigated by a FACSCanto II ([…]) flow cytometry system. The percentage of apoptotic cells was calculated by summation of the cells in (annexin V+ , PI−) and (annexin V+ , PI+) and the percentage of necrotic cells achieved from (annexin V−, PI+). An Annexin-V/PI assay was performed via flow cytometry to measure the percentage of cells with early and late apoptotic changes.

[2] = system: A549 human lung cancer cells; experiment: MTT cell viability assay, A549; assay type: cell-based
Procedure: (§2) All cancer cells were cultured in RPMI 1640 medium with 10% FBS in a humidified incubator of 95% air and 5% CO2 at 37 °C. […] Then, […] of MTT solution (5 mg/ml) was added to every well and kept at 37 °C for 4 h in the dark. After removing the medium, 200 µl DMSO was added, and the solution was kept on a shaker for approximately 15 min until the formazan solved completely. The absorbance was evaluated at 490 nm with an ELISA reader. The IC50 was computed by GraphPad Prism 7.0 software. […] All of cell lines were treated for three different duration times (24, 48 and 72 h). The Caco-2 cells were very sensitive to Pt(TSC)Cl in comparison with the two others in all three different durations of treatment. We also used cisplatin, a commercially available platinum-based compound, as a reference. […] Cell viability was assessed with MTT and is presented relative to untreated cells (set to 100%).

A549 cells [3] = experiment: Annexin V-FITC/PI apoptosis flow cytometry, A549; assay type: cell-based, Human; conditions: A549, IC50 concentration, 48 h
Procedure: as §1

[4] = system: Caco-2 human colon cancer cells; experiment: MTT cell viability assay, Caco-2; assay type: cell-based; conditions: for IC50: MTT
Procedure: as §2, with “h).” for “h). The Caco-2 cells were very sensitive to Pt(TSC)Cl in comparison with the two others in all three different durations of treatment. We also used cisplatin, a commercially available platinum-based compound, as a reference.”

[5] = system: Hek293 human embryonic kidney cells; experiment: MTT cell viability assay, Hek293 (nephrotoxicity); assay type: cell-based; conditions: Hek293 normal kidney cells, 24 h
Procedure: All cancer cells were cultured in RPMI 1640 medium with 10% FBS in a humidified incubator of 95% air and 5% CO2 at 37 °C. […] Then, […] of MTT solution (5 mg/ml) was added to every well and kept at 37 °C for 4 h in the dark. After removing the medium, 200 µl DMSO was added, and the solution was kept on a shaker for approximately 15 min until the formazan solved completely. The absorbance was evaluated at 490 nm with an ELISA reader. The IC50 was computed by GraphPad Prism 7.0 software. […] Cell viability was assessed with MTT and is presented relative to untreated cells (set to 100%).

Caco-2 cells [6] = experiment: Western blot of apoptotic proteins; assay type: cell-based, Human; conditions: Caco-2, IC50 value, 48 h
Procedure: Assessment of apoptotic protein level alterations by western blot analysis by the protocol described previously. The control included cells without treatment. To provide the cell lysate, cells were collected and treated with the following materials: RIPA buffer [500 µL of Tris–HCl (pH = 8), one tablet of protease inhibitor cocktail, 0.003 g EDTA, 0.08 g NaCl, 0.025 g sodium deoxycholate, 0.01 g SDS and 10 µl of Triton NP40 (1%)] used at 4 °C. After that, the cells were centrifuged at 12,000 rpm for 10 min at 4 °C. To measure total protein, the supernatant of cells was determined by the Bradford assay (Bio–Rad protein assay, Bio–Rad Laboratories, USA) using a spectrophotometer (Bibby Scientific Ltd, Beacon Rd, UK). The portions of target protein received from the sodium dodecyl sulfate–polyacrylamide gel electrophoresis (SDS–PAGE) were carried over the polyvinylidene difluoride (PVDF) membrane and were blocked with TBST buffer containing 5% (w/v) skim milk (0.1% v/v Tween®20-tris buffered saline: TBST). The blocked PVDF membranes that contained the target proteins were incubated with specific primary antibodies: Bax (B-9) mouse monoclonal antibody (Santa Cruz) (1:1000), Bcl-2 sc-492 (Santa Cruz) rabbit monoclonal antibody (1:1000), caspase-7 (C7) (Cell Signaling) rabbit polyclonal antibody (1:1000), Caspase-3 Cell Signaling rabbit monoclonal antibody (1:1000), caspase-9 (Cell Signaling) rabbit polyclonal antibody (1:1000), GAPDH (Santa Cruz) mouse monoclonal antibody (1:1000) and P27 (Elabscience) rabbit polyclonal antibody (1:400) that were diluted with blocking buffer) overnight at 4 °C. The membrane was washed with TBST and incubated with secondary antibodies (m-IgGκ BP-HRP (Santa Cruz) for Bax (B-9), Bcl-2 and GAPDH, and mouse anti-rabbit IG-HRP (Santa Cruz) was used for Caspase-3, 7, 9 and P27, which were diluted using blocking buffer (1:1000).) for 1 h at room temperature. The target protein bands were visualized by an enhanced chemiluminescence detection kit (Thermo Fisher Scientific, Breda, the Netherlands) and Amersham® Imager 600 system (GE Healthcare Life Sciences, Eindhoven, Netherlands). Finally, the western blotting results were normalized to the expression of GAPDH as the loading control. All the protein bands were quantified by ImageJ software (v. 1.52n).

A549 cells [7] = experiment: Cell cycle distribution by PI flow cytometry, A549; assay type: cell-based, Human; conditions: A549, IC50 concentration, 48 h
Procedure: (§3) Evaluation of cell cycle progression was performed by flow cytometry of propidium iodide and can identify the fraction of time spent by cells in various stages of the cell cycle. […] Cell cycle distribution was determined by flow cytometry by the protocol described previously. The control condition consisted of cells cultured in the absence of treatment but in the presence of PI. After harvesting the cells with trypsin, they were rinsed and fixed with 70% ethanol and kept for 3 days at 4 °C. Then, the samples were centrifuged, and after removal of supernatants […], the cells were dispersed in 300 µL of PBS. Next, after adding 10 µL of ribonuclease-A (10 mg/mL) and 45 min of incubation, 10 µL propidium iodide (1 mg/mL) was added to each of the samples and vortexed. After 10 min of incubation at room temperature and in the dark, the cells were examined by a FACSCalibur flow cytometer to estimate the cell cycle phases. FlowJo 7.6 software was used to analyze the cell cycle.

[8] = system: MCF-7 human breast cancer cells; experiment: MTT cell viability assay, MCF-7; assay type: cell-based
Procedure: as §2

MCF-7 cells [9] = experiment: Annexin V-FITC/PI apoptosis flow cytometry, MCF-7; assay type: cell-based, Human; conditions: MCF-7, IC50 concentration, 48 h
Procedure: as §1

Caco-2 cells [10] = experiment: Cell cycle distribution by PI flow cytometry, Caco-2; assay type: cell-based, Human; conditions: Caco-2, IC50 concentration, 48 h
Procedure: as §3

MCF-7 cells [11] = experiment: Cell cycle distribution by PI flow cytometry, MCF-7; assay type: cell-based, Human; conditions: MCF-7, IC50 concentration, 48 h
Procedure: as §3

[12] = system: MCF-7, A549 and Caco-2 cell lines; experiment: Real time PCR of apoptosis pathway genes; assay type: cell-based, Human; conditions: IC50 values, 48 h, GAPDH reference gene
Procedure: Then, the cells were rinsed with cold PBS and harvested. Total RNA was isolated from MCF-Z, A549, and Caco-2 cell lines by the TRIzol method (TRIzol™ Reagent (Invitrogen, Catalog number: 15596026)). Briefly, the cells were centrifuged at 500 g at 4 °C, the plates were processed for cell lysate by 750 μl of RiboEx; then 200 μl chloroform was subjoined to the cell lysate and after incubating for 2 min at room temperature, they were centrifuged at 12,000 g for 20 min (4 °C). Following collection of aqueous phases, one volume of isopropyl alcohol was dispensed for precipitation of total RNA at 12,000 g for 20 min (4 °C). The RNA plate was rinsed with 75% ethanol and dissolved in deep water. Complementary DNA (cDNA) synthesis was performed by Revert Aid Reverse Transcriptase (Cat numb: EP0441, Thermo Scientific, Lithuania) according to the manufacturer’s instructions. For evaluation of the apoptosis pathway genes, real time PCR was carried out based on the following PCR program[28]: initial denaturation at 95 °C for 15 min, 45 cycles of denaturation at 95 °C for 15 sec, and annealing/extension at 60 °C for 50 sec. The real time PCR mixture contained 5 μL 2x SYBR Green Master Mix (RealQ Plus 2x Master Mix Green, Ampliqon, Denmark), 2 μL cDNA, 0.5 μL of 5 pmol/μL primer pair mix (Eurofin, Germany), and 3 μL H2O. […]

[Cl][Pt-2]12[S]C(Nc3ccccc3)=N[N+]1=Cc1cccc[n+]12 (stereo not drawn) [Pt(TSC)Cl complex, [Pt(TSC)Cl]]
Late apoptosis (PI+/FITC+) cells (Q2) (Caco-2 cells [1]): 52.4% | Necrosis (PI+/FITC-) cells (Q1) (Caco-2 cells [1]): 4.79% | Viable (PI-/FITC-) cells (Q4) (Caco-2 cells [1]): 5.58% | IC50 ([2]; A549, 24 h): 147 µM | IC50 ([2]; A549, 48 h): 102 µM | IC50 ([2]; A549, 72 h): 69.3 µM | Early apoptosis (PI-/FITC+) cells (Q3) (A549 cells [3]): 3.74% | Late apoptosis (PI+/FITC+) cells (Q2) (A549 cells [3]): 7.12% | Necrosis (PI+/FITC-) cells (Q1) (A549 cells [3]): 3.9% | Viable (PI-/FITC-) cells (Q4) (A549 cells [3]): 85.2% | percentage of apoptotic cells (early + late) (A549 cells [3]): 10.86% | IC50 ([4]; Caco-2, 24 h): 17.2 µM | fold more toxicity than cisplatin ([4]; Caco-2, 48 h): 46 fold | IC50 ([4]; Caco-2, 48 h): 2.3 µM | IC50 ([4]; Caco-2, 72 h): 1.75 µM | IC50 [5]: 63.9 µM | Bcl2 protein levels (Caco-2 cells [6]): downregulation | Bax protein level, fold vs control group (Caco-2 cells [6]; normalized to GAPDH): 1.9 fold | caspase 3 protein level, fold vs control group (Caco-2 cells [6]; normalized to GAPDH): 1.97 fold | caspase 7 protein level, fold vs control group (Caco-2 cells [6]; normalized to GAPDH): 1.92 fold | caspase 9 protein level, fold vs control group (Caco-2 cells [6]; normalized to GAPDH): 3.2 fold | p27 protein, fold increase vs control group (Caco-2 cells [6]; normalized to GAPDH): 2.14 fold | G0/G1, percentage of cells (A549 cells [7]): 47.71% | G2/M, percentage of cells (A549 cells [7]): 15.66% | S, percentage of cells (A549 cells [7]): 13.94% | SubG1, percentage of cells (A549 cells [7]): 22% and 21.78% | IC50 ([8]; MCF-7, 24 h): 200 µM | IC50 ([8]; MCF-7, 48 h): 193 µM | IC50 ([8]; MCF-7, 72 h): 181 µM | Early apoptosis (PI-/FITC+) cells (Q3) (MCF-7 cells [9]): 6.47% | Late apoptosis (PI+/FITC+) cells (Q2) (MCF-7 cells [9]): 23.8% | Necrosis (PI+/FITC-) cells (Q1) (MCF-7 cells [9]): 2.38% | Viable (PI-/FITC-) cells (Q4) (MCF-7 cells [9]): 67.3% | G0/G1, percentage of cells (Caco-2 cells [10]): 30.34% | G2/M, percentage of cells (Caco-2 cells [10]): 5.08% | S, percentage of cells (Caco-2 cells [10]): 14.91% | SubG1, percentage of cells (Caco-2 cells [10]): ~51% | G0/G1, percentage of cells (MCF-7 cells [11]): 53.17% | G2/M, percentage of cells (MCF-7 cells [11]): 14.70% | S, percentage of cells (MCF-7 cells [11]): 28% and 27.72% | SubG1, percentage of cells (MCF-7 cells [11]): 4.95% | expression of apoptotic pathway genes Bax and Caspases 9, 3 and 7 vs control [12]: upregulated

N.N.[Cl][Pt][Cl] [cisplatin, reference compound]
IC50 ([2]; A549, 24 h): 96.8 µM | IC50 ([2]; A549, 48 h): 42.9 µM | IC50 ([2]; A549, 72 h): 13.1 µM | Early apoptosis (PI-/FITC+) cells (Q3) (A549 cells [3]): 7.50% | Late apoptosis (PI+/FITC+) cells (Q2) (A549 cells [3]): 7.83% | Necrosis (PI+/FITC-) cells (Q1) (A549 cells [3]): 1.73% | percentage of apoptotic cells (early + late) (A549 cells [3]): 15.33% | IC50 [5]: 4.15 µM | SubG1, percentage of cells (A549 cells [7]): 0.42% | G0/G1, percentage of cells (A549 cells [7]; listed as Cis): 66.94% | G2/M, percentage of cells (A549 cells [7]; listed as Cis): 16.08% | S, percentage of cells (A549 cells [7]; listed as Cis): 16.13% | IC50 ([8]; MCF-7, 24 h): 162 µM | IC50 ([8]; MCF-7, 48 h): 142 µM | IC50 ([8]; MCF-7, 72 h): 150 µM | Early apoptosis (PI-/FITC+) cells (Q3) (MCF-7 cells [9]): 8.48% | Late apoptosis (PI+/FITC+) cells (Q2) (MCF-7 cells [9]): 10.4% | Necrosis (PI+/FITC-) cells (Q1) (MCF-7 cells [9]): 3.24% | percentage of apoptotic cells (early + late) (MCF-7 cells [9]): 18.88% | G2/M, percentage of cells (MCF-7 cells [11]): 15.88% | S, percentage of cells (MCF-7 cells [11]): 37.2% | G0/G1, percentage of cells (MCF-7 cells [11]; listed as Cis): 37.21% | S, percentage of cells (MCF-7 cells [11]; listed as Cis): 37.43% | SubG1, percentage of cells (MCF-7 cells [11]; listed as Cis): 6.8%
